In ChEMBL document CHEMBL1201862, “PubChem BioAssay data set” (2004):
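Dose response: 5 concentrations. Exposure: 48 h. Format: 96-well plates. Endpoint: linear interpolation; highest concentration if not reached. Here, GI50 denotes the concentration required for 50% inhibition of growth.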 Activity calls are given as the source filed them. No stated cut-off is given here; in the data, active = GI50 up to about 1.1 µM and inactive = higher.

What was measured:
Test in all cases: DTP human tumour cell line panel, 48 h
[1] = system: SN12C
[2] = system: OVCAR-5
[3] = system: SF-539
[4] = system: A498
[5] = system: A549
[6] = system: Malme-3M
[7] = system: SNB-75
[8] = system: TK-10
[9] = system: M19-MEL
[10] = system: EKVX
[11] = system: UACC-62
[12] = system: RXF 631
[13] = system: LXFL 529
[14] = system: MOLT-4
[15] = system: DLD-1
[16] = system: LOX IMVI
[17] = system: RXF 393
[18] = system: NCI-H460
[19] = system: KM-20L2
[20] = system: U-251
[21] = system: K562
[22] = system: HT-29
[23] = system: NCI-H23
[24] = system: HOP-92
[25] = system: COLO 205
[26] = system: SF-268
[27] = system: SK-MEL-5
[28] = system: HCT-116
[29] = system: SW-620
[30] = system: HOP-18
[31] = system: IGROV-1
[32] = system: CCRF-CEM
[33] = system: UACC-257
[34] = system: DMS-114
[35] = system: NCI-H226
[36] = system: KM12
[37] = system: SK-OV-3
[38] = system: SK-MEL-2
[39] = system: M14
[40] = system: SNB-19
[41] = system: SF-295
[42] = system: NCI-H522
[43] = system: HCC 2998
[44] = system: ACHN
[45] = system: HOP-62
[46] = system: OVCAR-8
[47] = system: XF498
[48] = system: HCT-15
[49] = system: UO-31
[50] = system: SNB-78
[51] = system: OVCAR-4
[52] = system: OVCAR-3
[53] = system: SK-MEL-28

CC(C)=CCc1c(O)cc(O)c2c1OC(c1ccc(O)cc1)C(O)C2=O (stereo not drawn)
GI50 [1]: 27.7 µM (inactive)
GI50 [2]: 28.2 µM (inactive)
GI50 [3]: 18.4 µM (inactive)
GI50 [4]: 42.2 µM (inactive)
GI50 [5]: 26.1 µM (inactive)
GI50 [6]: 25.5 µM (inactive)
GI50 [7]: 26.8 µM (inactive)
GI50 [8]: 24.9 µM (inactive)
GI50 [9]: 35.7 µM (inactive)
GI50 [10]: 25.6 µM (inactive)
GI50 [11]: 21.4 µM (inactive)
GI50 [12]: 31.8 µM (inactive)
GI50 [13]: 28.8 µM (inactive)
GI50 [14]: > 10 µM (inactive)
GI50 [15]: 30.2 µM (inactive)
GI50 [16]: 18.7 µM (inactive)
GI50 [17]: 20.3 µM (inactive)
GI50 [18]: 27.6 µM (inactive)
GI50 [19]: 18.1 µM (inactive)
GI50 [20]: 25.2 µM (inactive)
GI50 [21]: 20.2 µM (inactive)
GI50 [22]: 20.9 µM (inactive)
GI50 [23]: 18.2 µM (inactive)
GI50 [24]: 18.3 µM (inactive)
GI50 [25]: 31 µM (inactive)
GI50 [26]: 32.1 µM (inactive)
GI50 [27]: 22.3 µM (inactive)
GI50 [28]: 32.4 µM (inactive)
GI50 [29]: 36.4 µM (inactive)
GI50 [30]: 17.8 µM (inactive)
GI50 [31]: 32 µM (inactive)
GI50 [32]: > 10 µM (inactive)
GI50 [33]: 36.2 µM (inactive)
GI50 [34]: 39.4 µM (inactive)
GI50 [35]: 21.9 µM (inactive)
GI50 [36]: 26.5 µM (inactive)
GI50 [37]: 38.4 µM (inactive)
GI50 [38]: 23.6 µM (inactive)
GI50 [39]: 22.6 µM (inactive)
GI50 [40]: 37.2 µM (inactive)
GI50 [41]: 27.5 µM (inactive)
GI50 [42]: 18.9 µM (inactive)
GI50 [43]: 23.1 µM (inactive)
GI50 [44]: 25.5 µM (inactive)
GI50 [45]: 19.3 µM (inactive)
GI50 [46]: 31.8 µM (inactive)
GI50 [47]: 30.2 µM (inactive)
GI50 [48]: 21.7 µM
GI50 [49]: 40 µM (inactive)
GI50 [50]: 24.3 µM (inactive)
GI50 [51]: 30.5 µM (inactive)
GI50 [52]: 19.2 µM (inactive)
GI50 [53]: 23.3 µM (inactive)
